Experimental data published in PubChem BioAssay (NCI).
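Values below derive from 48-hour exposures of cells grown in 96-well plates, with endpoints linearly interpolated between the two concentrations bracketing the appropriate inhibition level. TGI: total growth inhibition.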

What was measured:
Experiment in all cases: inhibition of tumour cell growth, NCI panel, 48 h
[1] = test system: CCRF-CEM leukemia
[2] = test system: DU-145 prostate
[3] = test system: IGROV1 ovarian
[4] = test system: MDA-MB-435
[5] = test system: OVCAR-4 ovarian
[6] = test system: OVCAR-8 ovarian
[7] = test system: RPMI-8226 leukemia
[8] = test system: RXF 393 renal
[9] = test system: SR leukemia
[10] = test system: SW-620 colon

Row | Compound | TGI [1] | TGI [2] | TGI [3] | TGI [4] | TGI [5] | TGI [6] | TGI [7] | TGI [8] | TGI [9] | TGI [10]
1 | CCCC1NC(C#N)(C#N)C(CCC)NC1(C#N)C#N (stereo not given) | 17.8 µM | > 43.1 µM | > 62.2 µM | 26.8 µM | > 100 µM | 21.6 µM | 0.943 µM | > 66.9 µM | 1.49 µM | > 100 µM
2 | [O-][n+]1onc2c3nn(-c4ccccc4)nc3ccc21 | > 100 µM | 57.8 µM | > 100 µM | > 100 µM | > 100 µM | > 100 µM | 53.3 µM | > 100 µM | > 75.1 µM | > 100 µM
